pIC50: −log10 of the molar value. In brackets after ≈: the same amount, converted by molar mass. Read-outs that look alike come from different tables or passages of the source. Marks after values point to notes of the source that are not given here.
Experiments:
[1] = tested on: Streptococcus mutans (S.m., UA159); experiment: microbe, parasite or virus in culture; conditions: read-out: IC50, 50% inhibition on bacterial proliferation, UA159
[2] = tested on: Staphylococcus aureus (S.a); experiment: microbe, parasite or virus in culture; conditions: read-out: IC50, 50% inhibition on bacterial proliferation, S. a.
[3] = tested on: Pseudomonas aeruginosa (P.a.); experiment: microbe, parasite or virus in culture; conditions: read-out: IC50, 50% inhibition on bacterial proliferation, P. a.
[4] = tested on: Porphyromonas gingivalis (P.g.); experiment: microbe, parasite or virus in culture; conditions: read-out: IC50, 50% inhibition on bacterial proliferation, P. g.
[5] = tested on: Streptococcus mutans (S.m., UA159); conditions: for IC50, 50% inhibition on bacterial proliferation, UA159: single agent
[6] = tested on: Porphyromonas gingivalis (P.g.); conditions: for IC50, 50% inhibition on bacterial proliferation, P. g.: single agent
[7] = tested on: Staphylococcus aureus (S.a); conditions: for IC50, 50% inhibition on bacterial proliferation, S. a.: single agent
[8] = tested on: Pseudomonas aeruginosa (P.a.); conditions: for IC50, 50% inhibition on bacterial proliferation, P. a.: single agent
[9] = tested on: Lactobacillus reuteri (L.r.); experiment: Proliferation of the probiotic Lactobacillus reuteri (OD600); type: cell-based
[10] = read-out: IC50 of single drug, Table 14, UA159, drug alone
[11] = read-out: IC50 of single drug, Table 14, P. g., drug alone
[12] = read-out: IC50, UA159, metals alone
[13] = read-out: IC50, S. a., metals alone
[14] = read-out: IC50, P. a., metals alone
[15] = read-out: IC50, P. g., metals alone
[16] = 3 to 10 times higher than the listed IC50, Table 1

Cc1nc(C)c(C)nc1C [Tetramethyl-pyrazine]
IC50 [1]: > 300 µg/mL
IC50 [2]: > 300 µg/mL
IC50 [3]: > 300 µg/mL
IC50 [4]: 37 µg/mL (≈ 272 µM)

O[C@H](CS)[C@H](O)CS (racemic) [Dithiothreitol]
IC50 [1]: > 300 µg/mL
IC50 [2]: > 300 µg/mL
IC50 [3]: > 300 µg/mL
IC50 [4]: > 300 µg/mL

Cc1cc(N)c2ccccc2[n+]1CCCCCCCCCC[n+]1c(C)cc(N)c2ccccc21 [Dequalinium]
IC50 [1]: 1 µg/mL
IC50 [2]: 2 µg/mL
IC50 [3]: > 10 µg/mL
IC50 [4]: 3 µg/mL

N.N.[Cl][Pt][Cl] [Pt]
pIC50 [5, 10]: < 4.00
pIC50 [6, 11]: 4.16

COc1ccc([C@@H]2Sc3ccccc3N(CCN(C)C)C(=O)[C@@H]2OC(C)=O)cc1 [Diltiagem]
IC50, 50% inhibition on bacterial proliferation, UA159 [5]: >300 µg/mL
IC50, 50% inhibition on bacterial proliferation, S. a. [7]: >300 µg/mL
IC50, 50% inhibition on bacterial proliferation, P. a. [8]: >300 µg/mL
IC50, 50% inhibition on bacterial proliferation, P. g. [6]: 104 µg/mL (≈ 251 µM)

Lysozyme
IC50, 50% inhibition on bacterial proliferation, UA159 [5]: >100 µg/mL
IC50, 50% inhibition on bacterial proliferation, S. a. [7]: >100 µg/mL
IC50, 50% inhibition on bacterial proliferation, P. a. [8]: >100 µg/mL
IC50, 50% inhibition on bacterial proliferation, P. g. [6]: 21 µg/mL

CC(Cc1ccc(O)c(O)c1)C(C)Cc1ccc(O)c(O)c1 (stereo not shown) [Nordihydro-guaiaretic acid]
IC50 [1]: 50 µg/mL (≈ 165 µM)
IC50 [2]: 66 µg/mL (≈ 218 µM)
IC50 [3]: > 300 µg/mL
IC50 [4]: < 30 µg/mL

CN(C)C(=N)N=C(N)N [Metformin]
IC50 [1]: > 1000 µg/mL
IC50 [2]: > 1000 µg/mL
Inhibition on proliferation of Lactobacillus reuteri ([9]; 3 to 10 times higher IC50, Table 2): MF, Metformin*
IC50 [3]: > 1000 µg/mL
IC50 [4]: 639 µg/mL (≈ 4950 µM)

CC(O)(P(=O)(O)O)P(=O)(O)O [Etidronate]
IC50 [1]: 597 µg/mL (≈ 2900 µM)
IC50 [2]: 350 µg/mL (≈ 1700 µM)
IC50 [3]: > 1000 µg/mL
IC50 [4]: 46 µg/mL (≈ 223 µM)

CO[C@H]1/C=C/O[C@@]2(C)Oc3c(C)c(O)c4c(O)c(c(/C=N/N5CCN(C)CC5)c(O)c4c3C2=O)NC(=O)/C(C)=C\C=C\[C@H](C)[C@H](O)[C@@H](C)[C@@H](O)[C@@H](C)[C@H](OC(C)=O)[C@@H]1C [Rifampin]
IC50 [1]: 0.013 µg/mL (≈ 0.0158 µM)
IC50 [2]: 0.013 µg/mL (≈ 0.0158 µM)
IC50 [3]: 26 µg/mL (≈ 31.6 µM)
IC50 [4]: 0.45 µg/mL (≈ 0.547 µM)

COc1ccc2cc3[n+](cc2c1OC)CCc1cc2c(cc1-3)OCO2 [Berberine]
IC50 [1]: 25 µg/mL
IC50 [2]: > 100 µg/mL
IC50 [3]: > 100 µg/mL
IC50 [4]: > 100 µg/mL

[Na+].[Na+].[Na+].[O]=[V]([O-])([O-])[O-] [Na3VO4]
pIC50 [5, 12]: 3.06
pIC50 [7, 13]: < 2.70
pIC50 [8, 14]: < 2.70
pIC50 [6, 15]: 3.66

[Cl][Ag] [AgCl]
Inhibition on proliferation of Lactobacillus reuteri [9, 16]: AgCl*
pIC50 [5, 12]: 4.46
pIC50 [5, 10]: 4.46
pIC50 [7, 13]: 4.55
pIC50 ([7]; read-out: IC50 of single drug, Table 14, S. a., drug alone): 4.25
pIC50 [8, 14]: 4.36
pIC50 ([8]; read-out: IC50 of single drug, Table 14, P. a., drug alone): 4.38
pIC50 [6, 15]: 4.85
pIC50 [6, 11]: 4.85

[Cl][Mn][Cl] [MnCl2]
Inhibition on proliferation of Lactobacillus reuteri [9, 16]: MnCl2*
pIC50 [5, 12]: 2.84
pIC50 [7, 13]: 2.56
pIC50 [8, 14]: < 2.70
pIC50 [6, 15]: 3.00

[Cl-].[Cl-].[Sr+2] [SrCl2]
Inhibition on proliferation of Lactobacillus reuteri [9, 16]: SrCl2*
pIC50 [5, 12]: < 2.52
pIC50 [7, 13]: 2.44
pIC50 [8, 14]: 2.38
pIC50 [6, 15]: < 2.52

protamine
IC50, 50% inhibition on bacterial proliferation, UA159 [5]: >100 µg/mL
IC50, 50% inhibition on bacterial proliferation, S. a. [7]: >100 µg/mL
IC50, 50% inhibition on bacterial proliferation, P. a. [8]: >100 µg/mL
IC50, 50% inhibition on bacterial proliferation, P. g. [6]: 31 µg/mL

NC[C@H]1O[C@H](O[C@H]2[C@H](O)[C@@H](O[C@H]3O[C@H](CO)[C@@H](O)[C@H](N)[C@H]3O)[C@H](N)C[C@@H]2N)[C@H](N)C[C@@H]1O [Tobramycin]
IC50 [1]: < 3 µg/mL
IC50 [2]: < 3 µg/mL
IC50 [3]: 9 µg/mL (≈ 19.3 µM)
IC50 [4]: 4 µg/mL (≈ 8.56 µM)

O=S(=O)([O-])[O-].[Zn+2] [ZnSO4]
Inhibition on proliferation of Lactobacillus reuteri [9, 16]: ZnSO4*
pIC50 [5, 12]: 3.02
pIC50 [7, 13]: 3.03
pIC50 [8, 14]: 2.94
pIC50 [6, 15]: 2.97
